Experimental data reported in patent publication US10183939B2, “Fused bicyclic (hetero)aromatic compounds useful for the treatment of cancers” (Redx Pharma PLC, priority 2014, dated 2019).
pIC50: −log10 of the molar value. “Also recorded” adds a separate entry of the source. Read-outs that look alike come from different tables or passages of the source.

What was measured:
B-RAF^V600E kinase = B-RAF^V600E kinase (Homo sapiens (Human), UniProt P15056, V600E); experiment: LanthaScreen Eu kinase binding assay (B-RAF V600E); conditions: tracer 178 competition, 5 hours
Description: LanthaScreen™ Eu kinase binding assay
To determine whether compounds bind to RAF kinases, they are tested in a competition binding assay. […] A Europium-labelled anti-tag antibody also binds to the kinase of interest.
(§1) Compounds at a concentration of 3 mM are serially diluted (e.g. 10 μl 90 μl of 100% dimethyl sulfoxide (DMSO)) seven times in 96-well plates for a total of 8 dilution points. Each DMSO dilution is further diluted 1:100 in kinase buffer (e.g. 5 μl into 495 μl kinase buffer) containing 50 mM HEPES pH 7.5, 10 mM MgCl2, 1 mM EGTA, 0.01% Brij-35.
(§2) The plates are incubated for 5 hours at room temperature and read on an EnVision plate reader (Perkin Elmer).
(§3) All data are analysed using the GraphPad Prism software package.

C-RAF Y340D/Y341D kinase = C-RAF Y340D/Y341D kinase (Homo sapiens (Human), UniProt P04049, Y340D/Y341D); experiment: LanthaScreen Eu kinase binding assay (C-RAF); conditions: tracer 178 competition, 5 hours
Description: LanthaScreen™ Eu kinase binding assay
To determine whether compounds bind to RAF kinases, they are tested in a competition binding assay. The Invitrogen LanthaScreen™ Eu binding assay involves the binding of an Alexa-Fluor® 647-labelled, ATP-competitive kinase tracer to the kinase of interest. A Europium-labelled anti-tag antibody also binds to the kinase of interest. Simultaneous binding of the tracer and the antibody brings them into close proximity and upon excitation at 340 nm, triggers fluorescence resonance energy transfer (FRET) between the Europium donor fluorophore on the antibody and the Alexa Fluor® 647 acceptor on the tracer. The dual emission signal produced can be measured at 665 and 615 nm.
as §1, §2
All data are analysed using the GraphPad Prism software package. Inhibition of tracer binding to the kinase of interest is assessed by determination of IC50 value, which is defined as the concentration of compound which decreased the level of FRET signal measured at 665 nm by 50%.

[1] = tested on: ERK phosphorylation in A375 cells (B-RAF^V600E); experiment: A375 AlphaScreen SureFire pERK1/2 cellular assay; type: cell-based; conditions: Homo sapiens, A-375, 0.5 h, 30 minutes treatment
Description: On day 2, compounds at a concentration of 6 mM are serially diluted 10 μl into 90 μl of 100% dimethyl sulfoxide (DMSO) six times in 96-well plates for a total of 7 dilution points. Each dilution and a DMSO control are further diluted 1:200 (e.g. 5 μl into 995 μl serum-free growth media). The media is removed and 50 μl compound dilution or control in serum-free media is added to triplicate wells containing cells, providing 30 μM compound at the maximum concentration. The cells are treated for 30 minutes at room temperature. The treatment is then removed and the cells are incubated with lysis buffer containing phosphatase inhibitors for 10 minutes at room temperature. […] The biotinylated antibody binds to the streptavidin-coated donor beads and the phopsho-ERK1/2 antibody binds to the acceptor beads. Plates are read on an EnVision reader (Perkin Elmer) and excitation of the beads at 680 nm with a laser induces the release of singlet oxygen molecules from the donor beads that trigger energy transfer to the acceptor beads in close proximity, producing a signal that can be measured at 570 nm. Both antibodies bind to phosphorylated ERK proteins, bringing the donor and acceptor beads into close proximity.
as §3

[2] = tested on: C-RAF-mediated ERK activation in B-RAF^WT IPC-298 cells (NRAS^Q61L); experiment: IPC-298 AlphaScreen SureFire pERK1/2 cellular assay; type: cell-based, human; conditions: 1 hour treatment, relative to reference compound Dabrafenib
Description: On day 2, compounds at a concentration of 6 mM are serially diluted 5 μl into 45 μl of 100% dimethyl sulfoxide (DMSO) six times in 96-well plates for a total of 7 dilution points. […] The cells are treated for 1 hour at 37° C. in 5% CO2. The treatment is then removed and the cells are incubated with lysis buffer containing phosphatase inhibitors for 10 minutes at room temperature with gentle shaking. […] The biotinylated antibody binds to the streptavidin-coated donor beads and the phopsho-ERK1/2 antibody binds to the acceptor beads. Plates are read on an EnVision reader (Perkin Elmer) and excitation of the beads at 680 nm with a laser induces the release of singlet oxygen molecules from the donor beads that triggers energy transfer to the acceptor beads in close proximity, producing a signal that can be measured at 570 nm. Both antibodies bind to phosphorylated ERK proteins, bringing the donor and acceptor beads into close proximity.
All data are analysed using the GraphPad Prism software package. Activation of ERK phosphorylation is expressed as a percentage of activation relative to the reference compound, Dabrafenib.

[3] = tested on: ERK phosphorylation in WiDr cells (B-RAF^V600E); experiment: WiDr AlphaScreen SureFire pERK1/2 cellular assay; type: cell-based; conditions: Homo sapiens
Description: The human WiDr colorectal cell line endogenously expresses the B-RAF^V600E mutation, which leads to constitutive activation of the MAP kinase pathway and phosphorylation of ERK in the absence of ligands.
On day 2, compounds at a concentration of 6 mM are serially diluted 10 μl into 90 μl of 100% dimethyl sulfoxide (DMSO) six times in 96-well plates for a total of 7 dilution points. Each dilution and a DMSO control are further diluted 1:200 (e.g. 5 μl into 995 μl minimum essential medium+0.1% fetal bovine serum). The media is removed and 100 μl compound dilution or control in minimum essential medium+0.1% fetal bovine serum is added to triplicate wells containing cells, providing 30 μM compound at the maximum concentration. The cells are treated for 1 hour or 24 hours at 37° C. The treatment is then removed and the cells are incubated with lysis buffer containing phosphatase inhibitors for 10 minutes at room temperature. […] The biotinylated antibody binds to the streptavidin-coated donor beads and the phopsho-ERK1/2 antibody binds to the acceptor beads. Plates are read on an EnVision reader (Perkin Elmer) and excitation of the beads at 680 nm with a laser induces the release of singlet oxygen molecules from the donor beads that triggers energy transfer to the acceptor beads in close proximity, producing a signal that can be measured at 570 nm. Both antibodies bind to phosphorylated ERK proteins, bringing the donor and acceptor beads into close proximity.
as §3

[4] = IC50 category, read-out: BRAF^V600E binding affinity
[5] = IC50 category, read-out: CRAF binding affinity
[6] = read-out: A375 pERK inhibition category
[7] = read-out: BRAF^V600E binding affinity IC50
[8] = read-out: CRAF binding affinity IC50
[9] = read-out: A375 pERK inhibition IC50
[10] = 1 hr treatment, read-out: WiDr pERK inhibition category 1 hr
[11] = 24 hrs treatment, read-out: WiDr pERK inhibition category 24 hrs

C-RAF Y340D/Y341D kinase, sequence (P04049 306-648 Y340D/Y341D): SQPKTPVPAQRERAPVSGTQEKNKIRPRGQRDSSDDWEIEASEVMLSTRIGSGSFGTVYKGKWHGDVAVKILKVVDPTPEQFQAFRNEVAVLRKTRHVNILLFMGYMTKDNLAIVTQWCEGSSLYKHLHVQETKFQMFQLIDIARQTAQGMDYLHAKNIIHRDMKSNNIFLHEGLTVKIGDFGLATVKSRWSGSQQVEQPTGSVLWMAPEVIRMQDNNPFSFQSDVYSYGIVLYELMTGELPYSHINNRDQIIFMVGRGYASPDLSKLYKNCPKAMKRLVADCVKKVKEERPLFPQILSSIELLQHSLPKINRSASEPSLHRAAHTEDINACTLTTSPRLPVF
B-RAF^V600E kinase, sequence (P15056 whole entry V600E): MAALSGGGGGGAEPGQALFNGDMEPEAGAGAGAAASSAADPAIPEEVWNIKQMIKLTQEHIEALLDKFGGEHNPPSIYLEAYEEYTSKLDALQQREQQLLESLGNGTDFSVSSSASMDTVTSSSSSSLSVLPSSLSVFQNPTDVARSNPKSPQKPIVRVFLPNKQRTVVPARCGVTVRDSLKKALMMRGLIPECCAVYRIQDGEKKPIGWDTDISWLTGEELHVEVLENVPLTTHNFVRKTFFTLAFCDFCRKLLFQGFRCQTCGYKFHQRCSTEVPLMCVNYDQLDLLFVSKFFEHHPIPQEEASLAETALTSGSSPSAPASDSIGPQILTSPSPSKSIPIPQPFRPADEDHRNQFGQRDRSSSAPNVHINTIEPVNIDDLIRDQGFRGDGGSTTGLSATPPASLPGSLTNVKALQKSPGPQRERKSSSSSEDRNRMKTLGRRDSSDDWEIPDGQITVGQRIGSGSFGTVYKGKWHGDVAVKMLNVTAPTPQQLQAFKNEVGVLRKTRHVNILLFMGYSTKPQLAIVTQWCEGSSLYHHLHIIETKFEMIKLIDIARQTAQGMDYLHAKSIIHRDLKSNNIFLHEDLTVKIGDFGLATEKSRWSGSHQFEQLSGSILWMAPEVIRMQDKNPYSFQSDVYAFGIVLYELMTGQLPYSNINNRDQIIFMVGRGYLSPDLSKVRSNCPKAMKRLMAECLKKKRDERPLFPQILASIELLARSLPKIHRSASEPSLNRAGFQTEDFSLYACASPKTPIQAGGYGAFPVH

Structure (SMILES)	pIC50 (B-RAF^V600E kinase; [4])	pIC50 (C-RAF Y340D/Y341D kinase; [5])	pIC50 [1, 6]	paradoxical activation of MAPK pathway (ERK phosphorylation) [2]	other results
O=C1CCc2c(Oc3ccc4c(c3)CC(c3nc5ccccc5[nH]3)CO4)ccnc2N1 (stereo not drawn) [Example 1, 5-[3-(1H-benzimidazol-2-yl)chroman-6-yl]oxy-3,4-dihydro-1H-1,8-naphthyridin-2-one]	> 8.40	> 8.40			
O=C1CCc2c(Oc3ccc4c(c3)CC(c3nc5cccc(Cl)c5[nH]3)CO4)ccnc2N1 (stereo not drawn) [Example 2, 5-[3-(7-chloro-1H-benzimidazol-2-yl)chroman-6-yl]oxy-3,4-dihydro-1H-1,8-naphthyridin-2-one]	7.00 to 8.40	7.00 to 8.40	6.52 to 7.15		
O=C1CCc2c(Oc3ccc4c(c3)CC(c3nc(-c5ccccc5)c[nH]3)CO4)ccnc2N1 (stereo not drawn) [Example 3, 5-[3-(4-phenyl-1H-imidazol-2-yl)chroman-6-yl]oxy-3,4-dihydro-1H-1,8-naphthyridin-2-one]				reduced paradoxical activation of MAPK pathway in comparison to Dabrafenib; also recorded: reduced paradoxical activity	
O=C1CCc2c(Oc3ccc4c(c3)CC(c3nc(-c5ccncc5)c[nH]3)CO4)ccnc2N1 (stereo not drawn) [Example 4, 5-[3-[4-(4-pyridyl)-1H-imidazol-2-yl]chroman-6-yl]oxy-3,4-dihydro-1H-1,8-naphthyridin-2-one]	> 8.40	> 8.40	< 6.52	reduced paradoxical activity	
CC(C)(C)c1c[nH]c(C2COc3ccc(Oc4ccnc5c4CCC(=O)N5)cc3C2)n1 (stereo not drawn) [Example 5, 5-[3-(4-tert-butyl-1H-imidazol-2-yl)chroman-6-yl]oxy-3,4-dihydro-1H-1,8-naphthyridin-2-one]	7.00 to 8.40	> 8.40			
O=C1CCc2c(Oc3ccc4c(c3)CC(c3nc(-c5ccsc5)c[nH]3)CO4)ccnc2N1 (stereo not drawn) [Example 6, 5-[3-[4-(3-thienyl)-1H-imidazol-2-yl]chroman-6-yl]oxy-3,4-dihydro-1H-1,8-naphthyridin-2-one]	> 8.40	> 8.40	> 7.15	reduced paradoxical activity	pIC50 (B-RAF^V600E kinase; [7]): 9.00; pIC50 (C-RAF Y340D/Y341D kinase; [8]): 9.40; pIC50 [1, 9]: 7.63
O=C1CCc2c(Oc3ccc4c(c3)CC(c3nc(-c5cccs5)c[nH]3)CO4)ccnc2N1 (stereo not drawn) [Example 7, 5-[3-[4-(2-thienyl)-1H-imidazol-2-yl]chroman-6-yl]oxy-3,4-dihydro-1H-1,8-naphthyridin-2-one]	> 8.40	> 8.40	> 7.15	reduced paradoxical activity	pIC50 (B-RAF^V600E kinase; [7]): 8.96; pIC50 (C-RAF Y340D/Y341D kinase; [8]): 9.30
O=C1CCc2c(Oc3ccc4c(c3)CC(c3ncc(-c5ccccc5Cl)[nH]3)CO4)ccnc2N1 (stereo not drawn) [Example 8, 5-[3-[5-(2-chlorophenyl)-1H-imidazol-2-yl]chroman-6-yl]oxy-3,4-dihydro-1H-1,8-naphthyridin-2-one]	> 8.40	> 8.40			
O=C1CCc2c(Oc3ccc4c(c3)CC(c3ncc(-c5cccc(Cl)c5)[nH]3)CO4)ccnc2N1 (stereo not drawn) [Example 9, 5-[3-[5-(3-chlorophenyl)-1H-imidazol-2-yl]chroman-6-yl]oxy-3,4-dihydro-1H-1,8-naphthyridin-2-one]	> 8.40	> 8.40			
O=C1CCc2c(Oc3ccc4c(c3)CC(c3nc(-c5coc6ccccc56)c[nH]3)CO4)ccnc2N1 (stereo not drawn) [Example 10, 5-[3-[4-(benzofuran-3-yl)-1H-imidazol-2-yl]chroman-6-yl]oxy-3,4-dihydro-1H-1,8-naphthyridin-2-one]	> 8.40	> 8.40			
O=C1CCc2c(Oc3ccc4c(c3)CC(c3ncc(-c5cccnc5)[nH]3)CO4)ccnc2N1 (stereo not drawn) [Example 11, 5-[3-[5-(3-pyridyl)-1H-imidazol-2-yl]chroman-6-yl]oxy-3,4-dihydro-1H-1,8-naphthyridin-2-one]	> 8.40	> 8.40			
CS(=O)(=O)c1ccc(-c2cnc(C3COc4ccc(Oc5ccnc6c5CCC(=O)N6)cc4C3)[nH]2)cc1 (stereo not drawn) [Example 12, 5-[3-[5-(4-methylsulfonylphenyl)-1H-imidazol-2-yl]chroman-6-yl]oxy-3,4-dihydro-1H-1,8-naphthyridin-2-one]	< 7.00	7.00 to 8.40			
O=C1CCc2c(Oc3ccc4c(c3)CC(c3ncc(-c5ccc(F)cc5)[nH]3)CO4)ccnc2N1 (stereo not drawn) [Example 13, 5-[3-[5-(4-fluorophenyl)-1H-imidazol-2-yl]chroman-6-yl]oxy-3,4-dihydro-1H-1,8-naphthyridin-2-one]	> 8.40	> 8.40			
O=C1CCc2c(Oc3ccc4c(c3)CC(c3ncc(-c5ccc6c(c5)OCO6)[nH]3)CO4)ccnc2N1 (stereo not drawn) [Example 14, 5-[3-[5-(1,3-benzodioxol-5-yl)-1H-imidazol-2-yl]chroman-6-yl]oxy-3,4-dihydro-1H-1,8-naphthyridin-2-one]	> 8.40	> 8.40			
O=C1CCc2c(Oc3ccc4c(c3)CC(c3ncc(-c5ccc6c(c5)OCCO6)[nH]3)CO4)ccnc2N1 (stereo not drawn) [Example 15, 5-[3-[5-(2,3-dihydro-1,4-benzodioxin-6-yl)-1H-imidazol-2-yl]chroman-6-yl]oxy-3,4-dihydro-1H-1,8-naphthyridin-2-one]	7.00 to 8.40	> 8.40			
O=C1CCc2c(Oc3ccc4c(c3)C=C(c3nc(-c5ccccc5)c[nH]3)CO4)ccnc2N1 [Example 16, 5-[[3-(4-phenyl-1H-imidazol-2-yl)-2H-chromen-6-yl]oxy]-3,4-dihydro-1H-1,8-naphthyridin-2-one]	7.00 to 8.40	> 8.40	< 6.52		
O=C1CCc2c(Oc3ccc4c(c3)CC(c3nc(-c5ccccc5)no3)CO4)ccnc2N1 (stereo not drawn) [Example 17, 5-[3-(3-phenyl-1,2,4-oxadiazol-5-yl)chroman-6-yl]oxy-3,4-dihydro-1H-1,8-naphthyridin-2-one]	7.00 to 8.40	7.00 to 8.40			
O=C1CCc2c(Oc3ccc4c(c3)CC(c3cc(-c5ccccc5)[nH]n3)CO4)ccnc2N1 (stereo not drawn) [Example 18, 5-[3-(5-phenyl-1H-pyrazol-3-yl)chroman-6-yl]oxy-3,4-dihydro-1H-1,8-naphthyridin-2-one]	> 8.40	> 8.40	< 6.52	reduced paradoxical activity	
O=C1CCc2c(Oc3ccc4c(c3)O[C@@H](c3nc(-c5ccccc5)c[nH]3)CO4)ccnc2N1 [Example 19, 5-[[(3S)-3-(4-phenyl-1H-imidazol-2-yl)-2,3-dihydro-1,4-benzodioxin-6-yl]oxy]-3,4-dihydro-1H-1,8-naphthyridin-2-one]	> 8.40	> 8.40	6.52 to 7.15	reduced paradoxical activity	pIC50 [3, 10]: 6.52 to 7.15; pIC50 [3, 11]: < 6.52; pIC50 [1, 9]: 6.81
O=C1CCc2c(Oc3ccc4c(c3)O[C@H](c3nc(-c5ccccc5)c[nH]3)CO4)ccnc2N1 [Example 20, 5-[[(3R)-3-(4-phenyl-1H-imidazol-2-yl)-2,3-dihydro-1,4-benzodioxin-6-yl]oxy]-3,4-dihydro-1H-1,8-naphthyridin-2-one]	> 8.40	> 8.40	6.52 to 7.15	reduced paradoxical activity	pIC50 [3, 10]: 6.52 to 7.15; pIC50 [3, 11]: < 6.52; pIC50 [1, 9]: 6.55
Cc1cc(Oc2ccc3c(c2)CC(c2ncc(-c4ccccc4)[nH]2)CO3)ccn1 (stereo not drawn) [Example 21, 2-Methyl-4-[3-(5-phenyl-1H-imidazol-2-yl)chroman-6-yl]oxy-pyridine]	7.00 to 8.40	7.00 to 8.40			
